For data set [1] the following is noted: cited from earlier work.
Data set [2] is described as follows: in vivo monitoring of radiolabeled analyte uptake in tissue with subcutaneous fiber optic beta radiation probes.
Description: The labeled glucose can be injected into the tail vein of test animals (such as rats) in a single bolus.
FIG. 11A illustrates a response profile graph (an integrated counts (above threshold) over time profile) taken over a monitored time period of about 85 minutes (study #2). The counts were taken on a thirty seconds/sample count time frame. In this experiment, a fiber optic probe was positioned subcutaneously in “normal” or non-cancerous tissue in the back of a Fisher 344 rat. A dose of 50 μCi of ^14C-2DG was injected in the tail vein. The data was monitored for about 85 minutes. […] The initial portion of the graph has values that represent “baseline” or dark current.
FIGS. 11B-11C illustrate graphs of data obtained using two probes, each placed subcutaneously in normal tissue of a 190 gram female Fisher 344 rat, one placed in the flank/inguinal and the other in the scapula (study #4). […] In this experiment, a bolus of 200 μCi of ^14C 2-DG was administered via intra-peritoneal (IP) injection. The data was monitored for about 96 minutes.

Data on three molecules can be found in patent publication US7011814B2, “Systems, methods and devices for in vivo monitoring of a localized response via a radiolabeled analyte in a subject” (Sicel Technologies, Inc., priority 2001, dated 2006).

For the molecule `O=c1[nH]cc(F)c(=O)[nH]1` [5-FU, 5-Fluorouracil], the “lesions in which enhanced trapping was noted” value in data set [1] (PET with O-15 labeled water and 5-[F-18]FU) is 70%.
On to `O=c1[nH]cc([18F])c(=O)[nH]1` [5-[F-18]FU], for which the “liver parenchyma uptake at the end of the acquisition time, relative to the maximum” value in data set [1] (PET, 120-minute acquisition time) was 25%. For the same molecule, in data set [1] (PET, during the 120-minute acquisition time), the “uptake in the metastases” value was “low and relatively constant”. Further, the “mean uptake in metastases relative to liver uptake at the same time interval” value in data set [1] (PET, liver metastases) was “one-third”. Besides, the “time of highest uptake in normal liver parenchyma after onset of the infusion of the tracer” value in data set [1] (PET, normal liver parenchyma) was “about 30 minutes”.
With C-14 labeled 2-deoxyglucose [^14C-2DG], in data set [2] (50 μCi injected in tail vein, probe subcutaneous in normal tissue in back of Fisher 344 rat, study #2, FIG. 11A), the “time from injection at which counts reached a plateau” value is listed as “about 10 minutes”. Further, the “concentration in scapula region compared to flank region” value in data set [2] (200 μCi bolus intra-peritoneal, two probes subcutaneous in normal tissue, 190 gram female Fisher 344 rat, monitored about 96 minutes, study #4, FIG. 11B) is “higher concentrations were obtained in the scapula region compared to the flank region”. Further, in data set [2] (200 μCi intra-peritoneal, flank/inguinal normal tissue probe, study #4, FIG. 11C), the “time range in which peak or maxima point of concentration is reached (observed points)” value was in the range of 20 to 50 min.
